Data taken from patent publication US11179455B2, “Use of a growth hormone secretagogue peptide as a vaccine adjuvant” (priority 2016, dated 2021).
Bridge positions count the residues as written; N and C are the ends. Square brackets hold non-standard residues; d marks the D form. Ends that are not written are not given here.

What was measured:
rainbow trout leucocytes = settings: cited from earlier work
activated macrophages = settings: mouse, in vivo; cited from earlier work
newly hatching chickens = settings: dose of 100 ng in ovo, day 10 of incubation; cited from earlier work
[1] = system: C2 antigen, a Dengue virus capsid protein; test: Humoral immune response against C2 antigen in mice, GHRP-6 co-administered; format: in vivo, BALB/c mice; settings: s.c.; 10 μg C2 + 10 μg GHRP-6, aluminum hydroxide; vs C2 without GHRP-6; day 28
Method: The C2 antigen, a Dengue virus capsid protein, was obtained as a recombinant protein in Escherichia coli, with a molecular weight of 15 kDa. To evaluate the humoral and cellular immune response in mice vaccinated with C2, in presence or absence of GHRP-6, 24 female BALB/c mice, 6-weeks old, were selected. They were distributed into 3 groups. Each animal was given an immunogen, according to the experimental group:
Group 2: 10 μg C2 co-administrated with 10 μg GHRP-6
In all groups, the immunogens further comprised aluminum hydroxide, also known as alum. Immunizations were performed by s.c route, on days 0, 15 and 30 of the immunization schedule. Blood samples were taken at days 0 (pre-immune), 7, 16, 21, 28 and 35, to assess total IgG titers.

OVA [2] = test: Humoral immune response against OVA in mice, GHRP-6 co-administered; format: in vivo, BALB/c mice; settings: for Total IgG titers against OVA: GHRP-6 10 μg + OVA 5 μg/animal, Freund's adjuvant, vs OVA without GHRP-6
Method: Thirty-six female BALB/c mice were used. Six study groups, with 6 animals each, were separated. Three groups were immunized by s.c route and the rest of them were treated by i.p route. In all groups, the immunogens were emulsified with Freund's adjuvant.
Group 1: Placebo (phosphate buffered saline, abbreviated PBS). s.c route.
Group 2: Placebo (PBS). i.p. route.
Group 3: GHRP-6 at 10 μg/animal and OVA at 5 μg/animal. s.c. route.
Group 4 GHRP-6 at 10 μg/animal and OVA at 5 μg/animal. i.p route.
Group 5: OVA 5 μg/animal. s.c. route.
Group 6: OVA 5 μg/animal. i.p. route.
Mice received 150 μL of the immunogen in all groups, which was administered to the animals on days 1 and 15 of the immunization schedule. Blood extractions were performed on days 0 (pre-immune serum), 8, 15, 22, 36, 43 and 50. Total IgG titers, IgG1 and IgG2a were evaluated. Complete Freund's Adjuvant (CFA) was used in the first immunization and Incomplete Freund's Adjuvant (IFA) in the next one. The animals of the group immunized with GHRP-6 and OVA, by s.c route, had higher titers (with statistical significance: p<0.05) than those of the group receiving OVA without GHRP-6, by the same route, on days 22, 36, 43 and 50 of the experiment (FIG. 1A). Animals injected with the same immunogens, but by i.p. route, had the same behavior on days 36 and 43 of the experiment (FIG. 1 B).

P0 [3] = test: Anti-P0 IgM response to P0-my32 in tilapia; format: in vivo, Oreochromis niloticus; settings: i.p., day 28; for Anti-P0 IgM titer: P0-my32 1 μg/g co-administrated with 20 μg peptide, Montanide ISA 50, vs P0-my32
From the text: (§1) The chimeric protein P0-my32 was generated by cloning the complementary deoxyribonucleic acid (cDNA) encoding a 35 amino acid peptide of the L. salmonis P0 ribosomal protein fused to the N-terminal end of the cDNA encoding the my32 protein of the same ectoparasite (Carpio et al., 2013; Exp. Parasitol 135: 188-199), in a vector designed for the induced expression of genes of interest in the host bacterium E. coli. This protein was produced in the bacterium and purified, as a fusion protein with a tail of histidine, by metal chelate affinity chromatography.
(§2) For the accomplishment of the immunization experiment, 6 study groups of male juveniles of Oreochromis niloticus, were formed, with 15 animals each. In all groups, the immunogen was administered by i.p. route, adjuvanted with Montaide ISA 50.
(§3) The experimental groups received the following immunogens:
(§4) Group 2: P0-my32 (1 μg/g of fish weight)
(§5) Group 3: P0-my32 (1 μg/g of fish weight) co-administrated with 20 μg GHRP-6
(§6) Group 4: P0-my32 (1 μg/g of fish weight) co-administrated with 20 μg A233
(§7) Group 5: P0-my32 (1 μg/g of fish weight). The fish in this group were fed with feed formulated with 100 μg of GHRP-6 per kg of feed, twice daily, for one week before and one week after the administration of my32 in injections.
(§8) During the course of the experiment, the fish in groups 1 to 4 were fed twice daily with a balanced unmedicated commercial formula, at the rate of 1% of their body weight. Immunizations were performed on days 0 and 14 of the schedule. Blood samples were taken at days 0, 21, 28 and 35 from the start of the experiment.

juvenile tilapia = settings: orally fed; cited from earlier work
P0 [4] = test: Anti-P0 IgM response to P0-TT in clarias; format: in vivo, Clarias gariepinus; settings: i.p.; P0-TT 1 μg/g + 20 μg peptide per animal, Montanide ISA 50; vs P0-TT without peptide; day 28
Method: […]. For the experiment, 4 study groups of C. gariepinus were formed, with 12 animals in each one. These animals were immunized by i.p. route with 1 μg of the P0-TT protein per gram of animal weight (Group 2) or with the same dose of the chimeric protein P0-TT (1 μg/g of animal weight) co-administered with 20 μg of either GHRP-6 or A233 per animal (Groups 3 and 4, respectively), in a total volume of 120 μL. The control group (Group 1) received the same volume of PBS. The immunogens corresponding to all groups were emulsified with Montanide ISA 50 oily adjuvant. The immunization was performed under the same conditions, on days 0 and 14 of the administration schedule. Blood samples were taken at days 0, 21, 28 and 35 counted from the start of the experiment.

[5] = system: peptide P0 of R. sanguineus; test: Humoral immune response against peptide P0 of R. sanguineus in mice, GHRP-6 co-administered; format: in vivo, BALB/c mice; settings: i.p.; 100 μg P0 + 200 μg GHRP-6, Freund's adjuvant; vs P0 without GHRP-6; day 36
Method: The peptide P0 is a fragment corresponding to the region of less sequence identity between the ribosomal protein P0 of the tick R. sanguineus and its mammalian host. To evaluate the humoral immune response stimulated by the co-administration of GHRP-6 and P0, 24 female, 6-week old BALB/c mice were selected and divided into three groups of 8 mice. Each animal received 150 μL of immunogen, by i.p route, on days 1, 15 and 29 of the immunization schedule. In the first immunization FCA was employed, and FIA was used in the other two administrations.
Group 3. 100 μg of P0 co-administrated with 200 μg of GHRP-6.
Blood samples were taken on days 0 (pre-immune serum), 8, 16, 21, 28, 36, 43, 50 and 58, to determine the levels of total IgG.

Aeromonas hydrophila [6] = test: Agglutinating antibodies against Aeromonas hydrophila in common carp; format: in vivo, Cyprinus carpio; settings: i.p.; inactivated cells 1×10^8 CFU + 20 μg GHRP-6/fish + Montanide ISA 50; vs bacterium without GHRP-6; day 21
Method: The experiment was carried out with carps (C. carpio) of 40±10 g. These animals were kept in 600 L aquaria, at a temperature of 28±2° C. Three experimental groups, of 10 carps each, were established and injected by i.p. route with the following immunogens:
Group 1: PBS+Montanide ISA 50.
Group 2: Inactivated A. hydrophila cells (1×10^8 Colony Forming Units, abbreviated CFU)+Montanide ISA 50.
(§9) Group 3: Inactivated A. hydrophila cells (1×10^8 CFU)+20 μg GHRP-6/fish+Montanide ISA 50.
Fish were injected on days 0 and 14, and blood samples were collected from the caudal vein on days 0 and 21. […] The preparation of A. hydrophila cells and the measurement of antibody titers were performed according to previous reports (Yin et al. ((1996) Fish & Shellfish Immunol. 6, 57-69).

Aeromonas hydrophila [7] = test: Controlled challenge with Aeromonas hydrophila in immunized common carp; format: in vivo, Cyprinus carpio; settings: challenge on day 21 by i.p injection of LD50 of the bacterium; mortality recorded for 7 days
Method: The experiment was carried out with common carp (C. carpio) of 30±5 g. These animals were kept in 250 L aquaria, at a temperature of 30±2° C. Three experimental groups, of 20 carps each, were established and the animals were injected by i.p. route with:
Group 1: PBS+Montanide ISA 50
Group 2: Inactivated A. hydrophila cells (1×10^8 CFU)+Montanide ISA 50
as §9
Fish were injected on day 0 and 14. The challenge was performed on day 21, by i.p injection of the lethal dose 50 (LD50) of the bacterium, and the mortality in each group was recorded for 7 days. The relative survival rate (RSR) was calculated as: RSR(%)=(% mortality of controls−% mortality of treated animals)/(% mortality of controls)×100.

my32 = test: Anti-my32 IgM response to P0-my32 in tilapia; format: in vivo, Oreochromis niloticus; settings: i.p., day 28; for Anti-my32 IgM antibody titers: P0-my32 1 μg/g co-administrated with 20 μg peptide, Montanide ISA 50, vs P0-my32
From the text: as §1, §2, §3, §4, §5, §6, §7, §8

tilapia larvae = settings: immersion baths; cited from earlier work
tilapia leukocytes = settings: in vitro; cited from earlier work
OVA [8] = test: Humoral immune response against OVA in mice, A233 co-administered; format: in vivo, BALB/c mice; settings: i.p.; 5 μg OVA + 10 μg A233/animal, Freund's adjuvant; vs OVA alone; day 22
Method: To evaluate whether the peptide A233 exerts an adjuvant effect on OVA, 18 female BALB/c mice were used. Mice received 150 μL of immunogen in all groups, by i.p route, which was given to the animals on days 1 and 15 of the immunization schedule. Blood samples were taken at days 0 (preimmune serum), 8, 15, 22, 36, 43 and 50. The titers of total IgG present in the sera were evaluated. The animals were immunized with 5 μg OVA/animal and 10 μg A233/animal (Group 2), or with 5 μg of OVA/animal (Group 3). The control group was injected with PBS (Group 1). All immunogens were emulsified with Freund's adjuvant.

[9] = serum of day 36, s.c and i.p routes, OVA with vs without GHRP-6
[10] = Group 3 (with GHRP-6) vs Group 2

For “ghrelin: endogenous ligand for the growth hormone secretagogues receptor (GHS-R) (GSSFLSPEHQRVQQRKESKKPPAKLQPR; ends and bridges not checked; UniProt Q9UBU3 24-51, looked up)”, the “Levels of GH messenger ribonucleic acid” value (rainbow trout leucocytes; in vitro) is given as “increases”, the “Production of superoxide anion” value (rainbow trout leucocytes; in vitro) is given as “increases” and the Superoxide dismutase (rainbow trout leucocytes; in vitro) is given as “increases”. For the same substance, the Arthritis (activated macrophages) was “attenuated”, the “Release of interleukin 6 (IL-6) from activated macrophages” value (activated macrophages) was “significantly inhibited” and the “Release of nitric oxide from activated macrophages” value (activated macrophages) was “significantly inhibited”. For the same substance, the “Count of heterophil, basophils and eosinophils, and heterophil/lymphocyte ratio” value (newly hatching chickens) was “increase” and the Lymphocytes (newly hatching chickens) was “decreased”.

In the case of “His-D-Trp-Ala-Trp-D-Phe-Lys-NH2 (H[dW]AW[dF]K-NH2) [GHRP-6, synthetic growth hormone releasing peptide, hexamer, used as molecular adjuvant]”, the “Anti-C2 IgG titer” value [1] is reported as “significant increase”, the “Total IgG titers against OVA” value (OVA [2]; i.p. route, days 36 and 43) is reported as “same behavior” and the IgG1/IgG2a (OVA [2]; intraperitoneal route, mean of the six animals in the group) is reported as “significantly superior”. For the same substance, the “Total IgG titers against OVA” value (OVA [2]; s.c. route, days 22, 36, 43 and 50, p<0.05) was “higher titers”, the IgG1 titers (OVA [2]; [9]) was “higher” and the IgG2a titers (OVA [2]; [9]) was “No significant differences”. For the same substance, the “Number of anti-P0 responder animals, IgM titers greater than 1:1000” value (P0 [3]; [10]) was “higher”, the “Anti-P0 IgM titer” value (P0 [3]) was “same effect” and the Lectin titers (juvenile tilapia) was “increase”. The “Number of intraepithelial lymphocytes of the gastric mucosa” value (juvenile tilapia) was “increase”, the “Anti-P0 IgM antibody titers” value (P0 [4]) was “increase” and the “Anti-P0 IgG titers” value [5] was “significant increase”. For the same substance, the “Titers of agglutinating antibodies against A. hydrophila” value (Aeromonas hydrophila [6]) was “significantly higher”, the “Relative survival rate (RSR)” value (Aeromonas hydrophila [7]) was 95% and the “Number of anti-my32 responder animals, IgM titers greater than 1:1000” value (my32; [10]) was “higher”. The “Anti-my32 IgM antibody titers” value (my32) was “increase”.

In the case of GHRP-2, the Arthritis (activated macrophages) is given as “attenuated”, the “Release of interleukin 6 (IL-6) from activated macrophages” value (activated macrophages) is given as “significantly inhibited” and the “Release of nitric oxide from activated macrophages” value (activated macrophages) is given as “significantly inhibited”.

In the case of [D-Lys3]-GHRP-6, the “Production of reactive oxygen species (O^2′—) after prior incubation with antagonist” value (rainbow trout leucocytes; prior incubation before ghrelin) is listed as “decreased”.

For “A233: growth hormone secretagogue peptide, structural analogue of GHRP-6 (GKFDLSPEHQ; lactam 2-4 (inferred))”, the “Antioxidant defense, enzyme superoxide dismutase” value (tilapia larvae) is given as “stimulates”, the Antiprotease activity (tilapia larvae) is given as “stimulates” and the Lectin titers (tilapia larvae) is given as “stimulates”. For the same substance, the “Anti-P0 IgM titer” value (P0 [3]) was “increase”, the “Anti-P0 IgM antibody titers” value (P0 [4]) was “same effect” and the “Production of indicators of phagocytic activity, such as superoxide anion” value (tilapia leukocytes) was “stimulated”. For the same substance, the “Anti-OVA antibody titers (total IgG)” value (OVA [8]) was “significant increase” and the “Anti-my32 IgM antibody titers” value (my32) was “increase”.
